We go through eleven compounds from patent US11542273B2, “Amide compound having bet proteolysis-inducing action and medicinal application thereof” (MITSUBISHI TANABE PHARMA CORPORATION, priority 2018, dated 2023).

The pIC50 is the negative decadic logarithm of the IC50, by convention in mol/L. Broadly, the DC50 is the midpoint of the concentration-degradation curve. Higher therefore signals degradation only at high concentration.

pIC50: −log10 of the molar value.

Assay [1] deals with human acute myeloid leukemia MV-4-11 cell transplanted mouse. Put plainly: Antitumor effect in human acute myeloid leukemia MV-4-11 cell transplanted mouse. It is filed as in vivo. To be noted: MV4-11, iv, 360 h, dose 0.3 mg/kg/day, tail vein on days 1, 5, 9, 13, tumor weight on day 15, read-out: tumor growth inhibitory rate. The method, then: The in vivo antitumor effect of the compound of the present invention was studied using human acute myeloid leukemia MV-4-11 cell transplanted mouse. MV-4-11 cells were subcutaneously transplanted into the inguinal region of male, 6-week-old BALB/c nude mouse (5×10^6 cells/mouse). The compound of the present invention was administered into the tail vein on days 1, 5, 9, 13 from the time point when the assumed tumor volume determined from 1/2ab^2 (a is major axis and b is minor axis of tumor) reached about 100 mm^3 (day 1). The control group was administered with a solvent, 10% hydroxypropyl-β-cyclodextrin solution. On day 15, the tumor was isolated, the weight was measured, and the tumor growth inhibitory rate IR (%) was calculated by the following formula. tumor growth inhibitory rate IR (%)=(1−tumor weight of administration group/tumor weight of nonadministration control group)×100

Assay [2] has as its system human prostate cancer LNCaP cells. The experiment in a line: Cytotoxic action on cancer cells (WST-8, 96 hr). It is filed as cell-based. The following applies: Homo sapiens, LNCaP, 96 h, read-out: LNCaP cytotoxic activity: IC50. In a few lines: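 Cells in 10% FBS/RPMI1640 were seeded, cultured overnight at 37° C, 5% CO2, then exposed to DMSO-dissolved compound diluted in medium. Viable cells were counted with a WST-8 kit against compound-free controls. IC50 was interpolated linearly between the two survival points bracketing 50%.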

A further assay deals with BRD4 protein (Homo sapiens (Human), UniProt O60885). The experiment in a line: BRD4 protein degradation inducing action in cancer cells (immunofluorescence, Operetta). Format: cell-based. The following applies: LNCaP cells, 6 hr treatment, fluorescence intensity. In a few lines:
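LNCaP prostate cancer cells in 10% FBS/RPMI1640 were exposed to compound for 6 hr at 37° C, then fixed, permeabilized and immunostained for BRD4 with Alexa Fluor 488 or 546 secondary antibodies plus Hoechst nuclear stain. Fluorescence was read by high-content imaging; DC50 is the concentration giving 50% of untreated signal, interpolated linearly between bracketing points.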

`COC(=O)N[C@@H]1N=C(c2ccc(-c3ccc(OCC(=O)N[C@H](C(=O)N4C[C@H](O)C[C@H]4C(=O)N[C@@H](C)c4ccc(-c5scnc5C)cc4)C(C)(C)C)cc3)cc2)c2c(sc(C)c2C)-n2c(C)nnc21` [Example 31, methyl [(6R)-4-{4′-[2-({(2S)-1-[(2S,4R)-4-hydroxy-2-({(1S)-1-[4-(4-methyl-1,3-thiazol-5-yl)phenyl]ethyl}carbamoyl)pyrrolidin-1-yl]-3,3-dimethyl-1-oxobutan-2-yl}amino)-2-oxoethoxy][1,1′-biphenyl]-4-yl}-2,3,9-trimethyl-6H-thieno[3,2-f][1,2,4]triazolo[4,3-a][1,4]diazepin-6-yl]carbamate]: in assay [1], the inhibition in vivo at 0.3 mg/kg stood at 95.6%. Also, the pIC50 in assay [2] was 10.41. Further, the 50% degradation concentration (DC50) at BRD4 protein is 0.062 nM.
As for `COC(=O)C[C@@H]1N=C(c2ccc(-c3ccc(C(=O)N[C@H](C(=O)N4C[C@H](O)C[C@H]4C(=O)N[C@@H](C)c4ccc(-c5scnc5C)cc4)C(C)C)cc3)cc2)c2c(sc(C)c2C)-n2c(C)nnc21` [Example 210, methyl {(6S)-4-[4′-({(2S)-1-[(2S,4R)-4-hydroxy-2-({(1S)-1-[4-(4-methyl-1,3-thiazol-5-yl)phenyl]ethyl}carbamoyl)pyrrolidin-1-yl]-3-methyl-1-oxobutan-2-yl}carbamoyl)[1,1′-biphenyl]-4-yl]-2,3,9-trimethyl-6H-thieno[3,2-f][1,2,4]triazolo[4,3-a][1,4]diazepin-6-yl}acetate], in assay [2], the pIC50 is 9.54. This compound also registered a DC50 on BRD4 protein of 0.26 nM.
Consider `COC(=O)C[C@@H]1N=C(c2ccc(-c3ccc(C(=O)N[C@H](C(=O)N4C[C@H](O)C[C@H]4C(=O)N[C@@H](CO)c4ccc(-c5scnc5C)cc4)C(C)(C)C)cc3)cc2)c2c(sc(C)c2C)-n2c(C)nnc21` [Example 215, methyl {(6S)-4-[4′-({(2S)-1-[(2S,4R)-4-hydroxy-2-({(1R)-2-hydroxy-1-[4-(4-methyl-1,3-thiazol-5-yl)phenyl]ethyl}carbamoyl)pyrrolidin-1-yl]-3,3-dimethyl-1-oxobutan-2-yl}carbamoyl)[1,1′-biphenyl]-4-yl]-2,3,9-trimethyl-6H-thieno[3,2-f][1,2,4]triazolo[4,3-a][1,4]diazepin-6-yl}acetate], for which the pIC50 in assay [2] is 9.51. This compound also displayed a DC50 at BRD4 protein of 0.33 nM.
As for `COC(=O)C[C@@H]1N=C(c2ccc(-c3ccc(C(=O)N[C@H](C(=O)N4C[C@H](O)C[C@H]4C(=O)NCc4ccc(-c5ocnc5C)cc4)C(C)(C)C)cc3)cc2)c2c(sc(C)c2C)-n2c(C)nnc21` [Example 218, methyl {(6S)-4-[4′-({(2S)-1-[(2S,4R)-4-hydroxy-2-({[4-(4-methyl-1,3-oxazol-5-yl)phenyl]methyl}carbamoyl)pyrrolidin-1-yl]-3,3-dimethyl-1-oxobutan-2-yl}carbamoyl) [1,1′-biphenyl]-4-yl]-2,3,9-trimethyl-6H-thieno [3,2-f][1,2,4]triazolo [4,3-a] [1,4]diazepin-6-yl}acetate], the pIC50 in assay [2] was 9.43. Moreover, at BRD4 protein, half-maximal degradation (DC50) was put at 0.41 nM.
On the same counts, the results for `CCOC(=O)c1ncsc1-c1ccc(CNC(=O)[C@@H]2C[C@@H](O)CN2C(=O)[C@@H](NC(=O)c2ccc(-c3ccc(C4=N[C@@H](CC(=O)OC)c5nnc(C)n5-c5sc(C)c(C)c54)cc3)cc2)C(C)(C)C)cc1` [Example 219, ethyl 5-{4-[({(2S,4R)-4-hydroxy-1-[(2S)-2-({4′-[(6S)-6-(2-methoxy-2-oxoethyl)-2,3,9-trimethyl-6H-thieno[3,2-f] [1,2,4]triazolo[4,3-a][1,4]diazepin-4-yl][1,1′-biphenyl]-4-carbonyl}amino)-3,3-dimethylbutanoyl]pyrrolidine-2-carbonyl}amino)methyl]phenyl}-1,3-thiazole-4-carboxylate] are 9.28 and 0.52 nM.
On the same counts, the results for `COC(=O)C[C@@H]1N=C(c2ccc(-c3ccc(C(=O)N[C@H](C(=O)N4C[C@H](O)C[C@H]4C(=O)NCc4ccc(-c5scnc5CO)cc4)C(C)(C)C)cc3)cc2)c2c(sc(C)c2C)-n2c(C)nnc21` [Example 220, methyl [(6S)-4-(4′-{[(2S)-1-{(2S,4R)-4-hydroxy-2-[({4-[4-(hydroxymethyl)-1,3-thiazol-5-yl]phenyl}methyl)carbamoyl]pyrrolidin-1-yl}-3,3-dimethyl-1-oxobutan-2-yl]carbamoyl}[1,1′-biphenyl]-4-yl)-2,3,9-trimethyl-6H-thieno[3,2-f][1,2,4]triazolo[4,3-a][1,4]diazepin-6-yl]acetate] are 9.04 and 0.92 nM.
For the compound `COC(=O)C[C@@H]1N=C(c2ccc(N3CC[C@H](C(=O)NCCOc4ccc5oc(C(=O)N[C@H](C(=O)N6C[C@H](O)C[C@H]6C(=O)N[C@@H](C)c6ccc(-c7scnc7C)cc6)C(C)(C)C)cc5c4)C3)cc2)c2c(sc(C)c2C)-n2c(C)nnc21` [Example Compound 68, methyl [(6S)-4-(4-{(3S)-3-[(2-{[2-({(2S)-1-[(2S,4R)-4-hydroxy-2-({(1S)-1-[4-(4-methyl-1,3-thiazol-5-yl)phenyl]ethyl}carbamoyl)pyrrolidin-1-yl]-3,3-dimethyl-1-oxobutan-2-yl}carbamoyl)-1-benzofuran-5-yl]oxy}ethyl)carbamoyl]pyrrolidin-1-yl}phenyl)-2,3,9-trimethyl-6H-thieno[3,2-f][1,2,4]triazolo[4,3-a][1,4]diazepin-6-yl]acetate], the pIC50 in assay [2] was 9.28. Also, it took 0.46 nM to reach half-maximal degradation at BRD4 protein (DC50).
`COC(=O)C[C@@H]1N=C(c2ccc(N3CC[C@@H](OCC(=O)N[C@H](C(=O)N4C[C@H](O)C[C@H]4C(=O)N[C@@H](C)c4ccc(-c5scnc5C)cc4)C(C)(C)C)C3)cc2)c2c(sc(C)c2C)-n2c(C)nnc21` [Example Compound 69, methyl [(6S)-4-(4-{(3R)-3-[2-({(2S)-1-[(2S,4R)-4-hydroxy-2-({(1S)-1-[4-(4-methyl-1,3-thiazol-5-yl)phenyl]ethyl}carbamoyl)pyrrolidin-1-yl]-3,3-dimethyl-1-oxobutan-2-yl}amino)-2-oxoethoxy]pyrrolidin-1-yl}phenyl)-2,3,9-trimethyl-6H-thieno[3,2-f][1,2,4]triazolo[4,3-a][1,4]diazepin-6-yl]acetate]: in assay [2], the pIC50 is 9.48. Further, the DC50 on BRD4 protein amounted to 0.15 nM.
For `COC(=O)C[C@@H]1N=C(c2ccc(-c3ccc(OCC(=O)N[C@H](C(=O)N4C[C@H](O)C[C@H]4C(=O)N[C@@H](C)c4ccc(-c5scnc5C)cc4)C(C)(C)C)cc3OC(F)(F)F)cc2)c2c(sc(C)c2C)-n2c(C)nnc21` [Example Compound 75, methyl [(6S)-4-{4′-[2-({(2S)-1-[(2S,4R)-4-hydroxy-2-({(1S)-1-[4-(4-methyl-1,3-thiazol-5-yl)phenyl]ethyl}carbamoyl)pyrrolidin-1-yl]-3,3-dimethyl-1-oxobutan-2-yl}amino)-2-oxoethoxy]-2′-(trifluoromethoxy)[1,1′-biphenyl]-4-yl}-2,3,9-trimethyl-6H-thieno[3,2-f] [1,2,4]triazolo[4,3-a][1,4]diazepin-6-yl]acetate], the pIC50 in assay [2] was 9.41. Besides, it took 0.75 nM to reach half-maximal degradation on BRD4 protein (DC50).
On the same counts, the results for `COC(=O)C[C@@H]1N=C(c2ccc(-c3ccc(C(=O)N[C@@H](C)C(=O)N[C@H](C(=O)N4C[C@H](O)C[C@H]4C(=O)N[C@@H](C)c4ccc(-c5scnc5C)cc4)C(C)(C)C)cc3)cc2)c2c(sc(C)c2C)-n2c(C)nnc21` [Example Compound 91, methyl [(6S)-4-(4′-{[(2S)-1-({(2S)-1-[(2S,4R)-4-hydroxy-2-({(1S)-1-[4-(4-methyl-1,3-thiazol-5-yl)phenyl]ethyl}carbamoyl)pyrrolidin-1-yl]-3,3-dimethyl-1-oxobutan-2-yl}amino)-1-oxopropan-2-yl]carbamoyl}[1,1′-biphenyl]-4-yl)-2,3,9-trimethyl-6H-thieno[3,2-f] [1,2,4]triazolo[4,3-a][1,4]diazepin-6-yl]acetate] are 9.27 and 0.77 nM.
On the same counts, the results for `COC(=O)C[C@@H]1N=C(c2ccc(-c3ccc(OCC(=O)N[C@H](C(=O)N4C[C@H](O)C[C@H]4C(=O)N[C@@H](C)c4ccc(-c5scnc5C)cc4)C(C)(C)C)c(C(F)(F)F)c3)cc2)c2c(sc(C)c2C)-n2c(C)nnc21` [Example Compound 100, methyl [(6S)-4-{4′-[2-({(2S)-1-[(2S,4R)-4-hydroxy-2-({(1S)-1-[4-(4-methyl-1,3-thiazol-5-yl)phenyl]ethyl}carbamoyl)pyrrolidin-1-yl]-3,3-dimethyl-1-oxobutan-2-yl}amino)-2-oxoethoxy]-3′-(trifluoromethyl)[1,1′-biphenyl]-4-yl}-2,3,9-trimethyl-6H-thieno[3,2-f] [1,2,4]triazolo[4,3-a][1,4]diazepin-6-yl]acetate] are 9.17 and 0.21 nM.
